The test system of the test is BDF1 mice, P388 leukemia ip, median survival T/C. Kind of test: NCI In Vivo Anticancer Drug Screen. Data for tumor model P388 Leukemia (intraperitoneal) in B6D2F1 (BDF1) mice. As to conditions: endpoint: median survival time, higher = longer survival. The method, boiled down: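 Steps: implant the tumour, treat one group with compound and another with vehicle, record survival, then divide treated by control.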

Where [1] appears, read: dose: 50.0 mg/kg/injection, schedule: Q04DX003 (ip), vehicle: saline.
The mark [2] stands for this setting: dose: 100.0 mg/kg/injection, schedule: Q04DX003 (ip), vehicle: saline.
Setting [3] is: dose: 200.0 mg/kg/injection, schedule: Q04DX003 (ip), vehicle: saline.
The mark [4] stands for this setting: dose: 100.0 mg/kg/injection, schedule: Q04DX003 (ip), vehicle: saline with Tween-80.
[5] abbreviates: dose: 200.0 mg/kg/injection, schedule: Q04DX003 (ip), vehicle: saline with Tween-80.
[6] abbreviates: dose: 400.0 mg/kg/injection, schedule: Q04DX003 (ip), vehicle: saline with Tween-80.
Where [7] appears, read: dose: 100.0 mg/kg/injection, schedule: Q01DX009 (ip), vehicle: Klucel (hydroxypropylcellulose) (HPC).
Where [8] appears, read: dose: 100.0 mg/kg/injection, schedule: Q04DX003 (ip), vehicle: Klucel (hydroxypropylcellulose) (HPC).
The mark [9] stands for this setting: dose: 200.0 mg/kg/injection, schedule: Q01DX009 (ip), vehicle: Klucel (hydroxypropylcellulose) (HPC).
The mark [10] stands for this setting: dose: 200.0 mg/kg/injection, schedule: Q04DX003 (ip), vehicle: Klucel (hydroxypropylcellulose) (HPC).
Where [11] appears, read: dose: 400.0 mg/kg/injection, schedule: Q01DX009 (ip), vehicle: Klucel (hydroxypropylcellulose) (HPC).
Where [12] appears, read: dose: 400.0 mg/kg/injection, schedule: Q04DX003 (ip), vehicle: Klucel (hydroxypropylcellulose) (HPC).
Setting [13] is: dose: 50.0 mg/kg/injection, schedule: Q01DX009 (ip), vehicle: saline with Tween-80.
Where [14] appears, read: dose: 100.0 mg/kg/injection, schedule: Q01DX009 (ip), vehicle: saline with Tween-80.

Structures are written as SMILES. Inconclusive results and toxic doses are left out. Residues, ends and D or L forms follow the SMILES beside them. *: point of attachment. Trt = c1ccc(C(c2ccccc2)(c2ccccc2)*)cc1; Bn = c1ccc(C*)cc1

On to `O/C(=C/C(=S)S)c1cccs1`, for which the T/C runs as follows: (dose: 0.1 mg/kg/injection, schedule: Q04DX003 (ip), vehicle: water) 88 % of control; (dose: 0.2 mg/kg/injection, schedule: Q04DX003 (ip), vehicle: water) 97 % of control; (dose: 0.39 mg/kg/injection, schedule: Q01DX009 (ip), vehicle: water) 101 % of control; (dose: 0.4 mg/kg/injection, schedule: Q04DX003 (ip), vehicle: water) 95 % of control; (dose: 0.78 mg/kg/injection, schedule: Q01DX009 (ip), vehicle: water) 97 % of control; (dose: 0.8 mg/kg/injection, schedule: Q04DX003 (ip), vehicle: water) 89 % of control. For the same compound, the T/C is 92 % of control (dose: 1.56 mg/kg/injection, schedule: Q01DX009 (ip), vehicle: water); 100 % of control (dose: 3.12 mg/kg/injection, schedule: Q01DX009 (ip), vehicle: water); 102 % of control (dose: 6.25 mg/kg/injection, schedule: Q01DX009 (ip), vehicle: water); 111 % of control (dose: 6.25 mg/kg/injection, schedule: Q04DX003 (ip), vehicle: water); 94 % of control (dose: 12.5 mg/kg/injection, schedule: Q01DX009 (ip), vehicle: water).

Take `C=C(C)CC#N`: the T/C runs as follows: under setting [1], 100 % of control; under setting [2], 109 % of control; under setting [3], 109 % of control.

For the compound `NC(=O)C(Cc1ccc(O)cc1)NC(=O)C(N)Cc1c[nH]c2ccccc12` (stereo not drawn) (H-Trp-Tyr-NH2; configuration not given here), the T/C by setting is: (dose: 50.0 mg/kg/injection, schedule: Q01DX005 (ip), vehicle: saline) 92 % of control; (dose: 100.0 mg/kg/injection, schedule: Q01DX005 (ip), vehicle: saline) 92 % of control; (dose: 200.0 mg/kg/injection, schedule: Q01DX005 (ip), vehicle: saline) 87 % of control.

As to `CCOCCOCCOCCCNCCCN1CC1`, the T/C (dose: 50.0 mg/kg/injection, schedule: Q01DX009 (ip), vehicle: saline) was 187 % of control; the T/C (dose: 100.0 mg/kg/injection, schedule: Q01DX009 (ip), vehicle: saline) was 95 % of control; the T/C under setting [2] is 177 % of control; the T/C under setting [3] is 190 % of control.

As to `CN1CCc2cc3c(cc2/C1=C1\OC(=O)c2c1ccc1c2OCO1)OCO3`, the T/C is, setting by setting: under setting [4], 88 % of control; under setting [5], 93 % of control; under setting [6], 101 % of control.

In the case of `CC(=O)Oc1ccc(N2C(=O)C=CC2=O)cc1`, the T/C (dose: 1.56 mg/kg/injection, schedule: Q04DX003 (ip), vehicle: Klucel (hydroxypropylcellulose) (HPC)) was 100 % of control; the T/C (dose: 3.12 mg/kg/injection, schedule: Q01DX009 (ip), vehicle: Klucel (hydroxypropylcellulose) (HPC)) was 104 % of control; the T/C (dose: 3.12 mg/kg/injection, schedule: Q04DX003 (ip), vehicle: Klucel (hydroxypropylcellulose) (HPC)) was 100 % of control; the T/C (dose: 6.25 mg/kg/injection, schedule: Q01DX009 (ip), vehicle: Klucel (hydroxypropylcellulose) (HPC)) is 104 % of control; the T/C (dose: 6.25 mg/kg/injection, schedule: Q04DX003 (ip), vehicle: Klucel (hydroxypropylcellulose) (HPC)) is 100 % of control; the T/C (dose: 9.2 mg/kg/injection, schedule: Q04DX003 (ip), vehicle: Klucel (hydroxypropylcellulose) (HPC)) was 90 % of control. In addition, the T/C (dose: 12.5 mg/kg/injection, schedule: Q01DX009 (ip), vehicle: Klucel (hydroxypropylcellulose) (HPC)) was 109 % of control and the T/C (dose: 14.0 mg/kg/injection, schedule: Q04DX003 (ip), vehicle: Klucel (hydroxypropylcellulose) (HPC)) was 95 % of control.

As to `CC(C)CC(C)CC(O)CC(C)C` (stereo unspecified), the T/C was 110 % of control under setting [7]; 100 % of control under setting [8]; 100 % of control under setting [9]; 100 % of control under setting [10]; 115 % of control under setting [11]; 95 % of control under setting [12].

As for `CCC(O)(CC(=O)O)c1ccccc1` (stereo unspecified), the T/C is 95 % of control under setting [4], 90 % of control under setting [5] and 90 % of control under setting [6].

Regarding `Cc1nc(C)c(Br)s1`, the T/C by setting is: (dose: 25.0 mg/kg/injection, schedule: Q01DX009 (ip), vehicle: saline with Tween-80) 100 % of control; under setting [13], 100 % of control; under setting [14], 107 % of control.

As for `CC1(C)COCN1CN1COCC1(C)C`, the T/C under setting [1] is 150 % of control and the T/C under setting [2] is 155 % of control.

Turning to `O=C1c2ccccc2-c2c(Br)c3ccccc3c(=O)n21`, the T/C was 105 % of control under setting [13]; 105 % of control under setting [14]; 117 % of control (dose: 200.0 mg/kg/injection, schedule: Q01DX009 (ip), vehicle: saline with Tween-80); 101 % of control (dose: 400.0 mg/kg/injection, schedule: Q01DX009 (ip), vehicle: saline with Tween-80).

Consider `Cc1cccc(NC(=O)c2ccccc2Cl)c1C`, for which the T/C is 109 % of control under setting [4], 90 % of control under setting [5] and 90 % of control under setting [6].

`c1ccc2c(c1)ccc1c[n+]3ccccc3cc12`: the T/C is, setting by setting: (dose: 0.25 mg/kg/injection, schedule: Q01DX009 (ip), vehicle: saline) 90 % of control; (dose: 0.5 mg/kg/injection, schedule: Q01DX009 (ip), vehicle: saline) 90 % of control; (dose: 1.0 mg/kg/injection, schedule: Q01DX009 (ip), vehicle: saline) 90 % of control; (dose: 2.0 mg/kg/injection, schedule: Q01DX009 (ip), vehicle: saline) 90 % of control.

With `Clc1nc2ccccc2nc1CI`, the T/C reads like this: (dose: 1.8 mg/kg/injection, schedule: Q01DX009 (ip), vehicle: saline) 118 % of control; (dose: 2.7 mg/kg/injection, schedule: Q01DX009 (ip), vehicle: saline) 122 % of control; (dose: 8.75 mg/kg/injection, schedule: Q04DX003 (ip), vehicle: saline) 113 % of control; (dose: 12.5 mg/kg/injection, schedule: Q01DX009 (ip), vehicle: saline with Tween-80) 118 % of control; (dose: 12.5 mg/kg/injection, schedule: Q01DX009 (ip), vehicle: saline) 90 % of control; (dose: 12.5 mg/kg/injection, schedule: Q04DX003 (ip), vehicle: saline with Tween-80) 113 % of control. Besides, the T/C reads like this: (dose: 17.5 mg/kg/injection, schedule: Q04DX003 (ip), vehicle: saline) 121 % of control; (dose: 25.0 mg/kg/injection, schedule: Q04DX003 (ip), vehicle: saline with Tween-80) 118 % of control; (dose: 35.0 mg/kg/injection, schedule: Q04DX003 (ip), vehicle: saline) 113 % of control; under setting [1], 113 % of control.

Turning to `CCOC(=O)C(C#N)(CC)C1=CCCCC1` (stereo unspecified), the T/C was 108 % of control under setting [7]; 109 % of control under setting [8]; 100 % of control under setting [9]; 100 % of control under setting [10]; 104 % of control under setting [11]; 122 % of control under setting [12].

Regarding `COC(=O)C(CSC(c1ccccc1)(c1ccccc1)c1ccccc1)NC(=O)C(CSCc1ccccc1)NC(C)=O` (stereo unspecified) (Ac-Cys(Bn)-Cys(Trt)-OMe; configuration not given here), the T/C is, setting by setting: (dose: 100.0 mg/kg/injection, schedule: Q01DX009 (ip), vehicle: other) 88 % of control; (dose: 200.0 mg/kg/injection, schedule: Q01DX009 (ip), vehicle: other) 93 % of control; (dose: 400.0 mg/kg/injection, schedule: Q01DX009 (ip), vehicle: other) 107 % of control.

The values are drawn from PubChem BioAssay AID328 (DTP/NCI, 2004).
